For this assay, the target named is T1, recombinant human sweet receptor (Homo sapiens, UniProt Q7RTX0+Q8TE23).
T1 construct: expressed in transfected cells
T1 sequence (Q8TE23 20-839): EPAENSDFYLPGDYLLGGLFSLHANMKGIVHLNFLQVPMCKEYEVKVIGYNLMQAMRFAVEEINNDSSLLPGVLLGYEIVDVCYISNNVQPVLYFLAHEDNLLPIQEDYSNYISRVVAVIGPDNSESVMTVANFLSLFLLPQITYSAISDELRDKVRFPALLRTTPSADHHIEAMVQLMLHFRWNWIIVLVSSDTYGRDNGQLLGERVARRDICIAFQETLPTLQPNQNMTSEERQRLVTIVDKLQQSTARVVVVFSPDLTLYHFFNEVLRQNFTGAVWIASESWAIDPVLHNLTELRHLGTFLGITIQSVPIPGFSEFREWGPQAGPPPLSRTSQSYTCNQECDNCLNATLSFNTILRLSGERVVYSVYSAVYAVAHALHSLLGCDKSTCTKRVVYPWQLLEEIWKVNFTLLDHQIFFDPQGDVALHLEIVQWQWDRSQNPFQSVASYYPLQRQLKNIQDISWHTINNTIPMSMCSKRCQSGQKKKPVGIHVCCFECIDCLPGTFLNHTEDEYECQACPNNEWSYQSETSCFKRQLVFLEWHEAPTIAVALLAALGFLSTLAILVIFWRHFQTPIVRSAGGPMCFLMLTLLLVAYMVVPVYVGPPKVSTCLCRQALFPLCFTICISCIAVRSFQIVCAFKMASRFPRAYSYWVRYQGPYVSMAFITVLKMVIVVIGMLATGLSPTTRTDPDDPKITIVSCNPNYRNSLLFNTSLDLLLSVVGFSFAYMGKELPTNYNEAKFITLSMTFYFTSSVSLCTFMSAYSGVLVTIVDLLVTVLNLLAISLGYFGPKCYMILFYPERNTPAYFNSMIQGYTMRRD
T1 sequence (Q7RTX0 21-852): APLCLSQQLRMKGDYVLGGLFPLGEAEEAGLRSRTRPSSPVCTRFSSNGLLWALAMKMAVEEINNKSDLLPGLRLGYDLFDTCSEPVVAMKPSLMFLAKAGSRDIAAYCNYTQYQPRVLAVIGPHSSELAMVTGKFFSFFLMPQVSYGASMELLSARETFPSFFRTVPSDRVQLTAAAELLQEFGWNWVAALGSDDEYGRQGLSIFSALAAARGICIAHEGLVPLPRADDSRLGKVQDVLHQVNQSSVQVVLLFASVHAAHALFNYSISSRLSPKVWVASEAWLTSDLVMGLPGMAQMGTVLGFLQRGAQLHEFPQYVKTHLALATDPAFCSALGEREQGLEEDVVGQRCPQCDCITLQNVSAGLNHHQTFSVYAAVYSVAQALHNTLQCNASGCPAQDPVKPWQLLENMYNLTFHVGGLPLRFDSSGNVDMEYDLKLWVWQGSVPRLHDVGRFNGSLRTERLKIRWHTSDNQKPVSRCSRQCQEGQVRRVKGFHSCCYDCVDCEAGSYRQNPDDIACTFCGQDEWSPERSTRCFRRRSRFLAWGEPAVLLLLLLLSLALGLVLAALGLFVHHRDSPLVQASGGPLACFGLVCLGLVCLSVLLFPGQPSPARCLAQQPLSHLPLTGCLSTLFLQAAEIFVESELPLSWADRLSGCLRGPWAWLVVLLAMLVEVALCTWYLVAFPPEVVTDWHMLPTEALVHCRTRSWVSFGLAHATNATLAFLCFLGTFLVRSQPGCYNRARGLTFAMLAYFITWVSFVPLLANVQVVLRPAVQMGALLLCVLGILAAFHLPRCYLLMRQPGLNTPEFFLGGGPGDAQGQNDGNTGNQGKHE
As to the kind of experiment: Sweet receptor assay, calcium imaging (Fluo-4 AM) in cells stably expressing the receptor and chimeric G-protein G16g25. Type of assay: cell-based. The method, then:
Cells stably expressing the recombinant human sweet receptor and the chimeric G-protein G16g25 were dispensed in a 384-well clear bottom plate (Fisher) and incubated overnight at 37° C. and 6% CO2. On the day of the experiment, cells were loaded with 4 μM of the calcium indicator Fluo-4 AM (Invitrogen) in D-PBS for 1 hour at room temperature and excess dye washed away with D-PBS, leaving a residual volume of 25 μL/well. After 30 minutes of rest time the cell plate and the compound plate were transferred into a fluorometric imaging plate reader (Molecular Devices). To determine potency, compound plates were prepared with serial dilutions of compound at 2× the final assay concentration in D-PBS. Imaging and data analysis was performed according to the procedures set forth in Servant et al., PROC. NAT'L ACAD. SCI. USA, vol. 107(10), pp. 4746-51 (2010).

For the molecule `C[C@H](CC[C@@H](O[C@@H]1O[C@H](CO[C@H]2O[C@H](CO)[C@@H](O)[C@H](O)[C@H]2O)[C@@H](O)[C@H](O)[C@H]1O[C@@H]1O[C@H](CO)[C@@H](O)[C@H](O)[C@H]1O)C(C)(C)O)[C@H]1CC[C@@]2(C)C3CC=C4[C@@H](CC[C@H](O[C@@H]5O[C@H](CO)[C@@H](O[C@@H]6O[C@H](CO)[C@@H](O)[C@H](O)[C@H]6O)[C@H](O)[C@H]5O)C4(C)C)[C@]3(C)[C@H](O)C[C@]12C` (some centres unmarked) [MC1], for the setting “Fluo-4 AM calcium signal, fluorometric imaging plate reader, read-out: EC50 of the dose-response curve in the sweet taste assays”, the concentration giving a half-maximal response (EC50) turned out to be 8 µM. The “dose-response effect in the sweet taste assays” value (serial dilutions of compound) is reported as “showed a dose-response effect indicative of its utility as a sweetener”.

The record behind these values is patent publication US20240225066A1, “MOGROSIDE COMPOUNDS AND THEIR COMESTIBLE USE” (Firmenich Incorporated, priority 2021, published 2024).
